In ChEMBL document CHEMBL1126927:

Biological target: Estrogen receptor (Ovis aries) (UniProt P49885+Q9TU15)
Description: Association constant for estrogen receptor

Row | Compound | K ass
1 | [N-]=[N+]=Nc1c(F)c(F)c(C(=O)c2c(-c3ccc(O)cc3)sc3cc(O)ccc23)c(F)c1F | 1.7e+08
2 | [N-]=[N+]=Nc1ccc(C(=O)c2c(-c3ccc(O)cc3)sc3cc(O)ccc23)cc1 | 1e+09
3 | O=C(c1ccc(OCCN2CCCC2)cc1)c1c(-c2ccc(O)cc2)sc2cc(O)ccc12 | 1.3e+09
